According to PubChem BioAssay (NCI):
“And” between values parts separate entries of the source, which are not always exact repeats. Identical values can stand only once.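 Assay format: 96-well plates, 48-hour exposure. GI50: concentration for 50% inhibition of growth. TGI denotes the concentration required for complete inhibition of growth.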

Tests used:
Assay in all cases: inhibition of tumour cell growth, NCI panel, 48 h
786-0 renal = system: 786-0 renal
DU-145 prostate = system: DU-145 prostate
HCT-116 colon = system: HCT-116 colon
K-562 leukemia = system: K-562 leukemia
M14 melanoma = system: M14 melanoma
MOLT-4 leukemia = system: MOLT-4 leukemia
SK-OV-3 ovarian = system: SK-OV-3 ovarian
SNB-19 CNS = system: SNB-19 CNS
SNB-75 CNS = system: SNB-75 CNS
UO-31 renal = system: UO-31 renal

| SMILES | GI50 (786-0 renal) | TGI (786-0 renal) | GI50 (DU-145 prostate) | TGI (DU-145 prostate) | GI50 (HCT-116 colon) | TGI (HCT-116 colon) | GI50 (K-562 leukemia) | TGI (K-562 leukemia) | GI50 (M14 melanoma) | TGI (M14 melanoma) | GI50 (MOLT-4 leukemia) | TGI (MOLT-4 leukemia) | GI50 (SK-OV-3 ovarian) | TGI (SK-OV-3 ovarian) | GI50 (SNB-19 CNS) | TGI (SNB-19 CNS) | GI50 (SNB-75 CNS) | TGI (SNB-75 CNS) | GI50 (UO-31 renal) | TGI (UO-31 renal) |
| --- | --- | --- | --- | --- | --- | --- | --- | --- | --- | --- | --- | --- | --- | --- | --- | --- | --- | --- | --- | --- |
| COc1cc(C)c(C(=O)O[C@H]2[C@H](O[C@H]3[C@@H](O)COC(O[C@H]4C[C@H]5[C@@H]6CC=C7C[C@@H](O)CC[C@]7(C)[C@H]6CC[C@]5(C)[C@H]4[C@H](C)C(=O)CCC(C)C)[C@@H]3OC(C)=O)OC[C@@H](O)[C@@H]2O)c(C)c1 (some centres not stated) | < 0.01 µM | 2.55 µM | 1.52 µM | 21.9 µM | < 0.01 µM | 2.29 µM | < 0.01 µM | 7.47 µM | < 0.01 µM | < 0.01 µM | < 0.01 µM | 0.704 µM | 0.141 µM | 2.73 µM | < 0.01 µM | 4.93 µM | < 0.01 µM | 7.71 µM | < 0.01 µM | 0.0584 µM |
| O=C(c1ccccc1Nc1ccnc(C(F)(F)F)c1)N1CCN(c2cccc(Cl)c2)CC1 | 23.2 µM | > 84 µM | 28.1 µM | > 100 µM | 12.2 µM | 29 µM | 19.2 µM | > 100 µM | 21.4 µM | > 74.3 µM | 11.9 µM | 44.5 µM | 28.3 µM | 92.5 µM | 26.1 µM | > 100 µM | 26 µM | > 92.2 µM | 13.7 µM | 68.1 µM |
| C#CCN1C(=O)/C(=c2\sc3n(c2=O)C2C(NN=3)N(CC)C(=O)N2CC)c2ccccc21 (configuration not stated) | 0.669 µM | 22.5 µM | 1.04 µM | > 38.6 µM | 0.376 µM | > 100 µM | 0.342 µM | > 100 µM | 0.283 µM | – | 0.708 µM | > 100 µM | 3.11 µM | > 100 µM | 0.811 µM | > 100 µM | 0.25 µM | 0.997 µM | 0.673 µM | > 100 µM |
| C=C1CCC2C3(C)COC(c4ccc(NC(C)=O)cc4)OC3CCC2(C)C1C/C=C1/C(=O)OCC1O (configuration not stated) | > 100 µM | > 100 µM | > 100 µM | > 100 µM | 4.7 µM | > 100 µM | 2.26 µM | > 100 µM | > 100 µM | > 100 µM | 2.32 µM | 24.9 µM | > 100 µM | > 100 µM | > 100 µM | > 100 µM | > 100 µM | > 100 µM | 5.43 µM | > 100 µM |
| O=C1c2ccccc2C(=O)c2c(NCCCNCCO)ccc(NCCCNCCO)c21 | – | 16.6 µM | – | 35.8 µM | – | 16.8 µM | – | 13.9 µM | – | 25.5 µM | – | 18.5 µM | – | 58.7 µM | – | 20.9 µM | – | 23.3 µM | – | 28.4 µM |
| CN1/C(=C\C(I)C(I)C2=[N+](C)c3ccccc3C2(C)C)C(C)(C)c2ccccc21 (configuration not stated) | 0.904 µM | 16.2 µM | 0.386 µM | > 56.7 µM | 0.0852 µM | 11.6 µM | 0.202 µM | 14.6 µM | 0.367 µM | 13.2 µM | 0.243 µM | 2.07 µM | 0.247 µM | 1.6 µM | 0.291 µM | 40.3 µM | 0.416 µM | 9.77 µM | 0.601 µM | 9.75 µM |
| C/C(=C\c1ccc(Cl)cc1)C(C)(C)C(=O)O | – | > 100 µM | – | > 100 µM | – | > 100 µM | – | > 100 µM | – | > 100 µM | – | > 100 µM | – | > 100 µM | – | > 100 µM | – | > 100 µM | – | > 100 µM |
| CN(C)c1ccc(/C=C2\C[C@H]3[C@@H]4CC=C5C[C@@H](N6CCCC6)CC[C@]5(C)[C@H]4CC[C@]3(C)[C@H]2O)cc1 | 1.84 µM | 1.29 µM and 3.73 µM | 13.7 µM | 13.7 µM and > 100 µM | 2.1 µM | 1.7 µM and 4.67 µM | 2.36 µM | – | 1.8 µM | 1.45 µM and 3.63 µM | 4.98 µM | – | 14.7 µM | 13 µM and > 100 µM | 2.41 µM | 6.94 µM and 9.08 µM | 3.4 µM | 3.01 µM and 14.9 µM | 1.96 µM | 1.62 µM and 4.25 µM |
| COc1ccc(-c2ccc3c(NC(=O)C4CC4)n[nH]c3n2)cc1 | > 20.1 µM | > 25 µM | > 25 µM | > 25 µM | > 25 µM | > 25 µM | > 25 µM | > 25 µM | > 25 µM | > 25 µM | > 25 µM | > 25 µM | 19.6 µM | > 25 µM | 15.9 µM | > 25 µM | 5.1 µM | > 17.2 µM | > 20 µM | > 25 µM |
| O=C(NCc1cccnc1)/C(=C\c1ccc(Br)cc1)S(=O)(=O)c1ccccc1 | 1.15 µM | 2.44 µM | 0.431 µM | 1.53 µM | 0.46 µM | 1.84 µM | 0.423 µM | 13 µM | 1.04 µM | 2.86 µM | 0.419 µM | 2.95 µM | 2.7 µM | 5.97 µM | 1.43 µM | 2.83 µM | 1.05 µM | 2.34 µM | 0.904 µM | 2.21 µM |
| S=c1nc[nH]c2c1ncn2Cc1ccco1 | – | > 100 µM | – | > 100 µM | – | > 100 µM | – | > 100 µM | – | > 100 µM | – | > 100 µM | – | > 100 µM | – | > 100 µM | – | > 100 µM | – | > 100 µM |
| CC1(C)N=C(N)N=C(N)N1c1cccc(C#N)c1 | 0.578 µM | > 100 µM | 6.53 µM | > 100 µM | 0.364 µM | > 100 µM | 0.293 µM | > 100 µM | 0.696 µM | > 100 µM | 3.21 µM | > 100 µM | 21.2 µM | > 100 µM | 49.4 µM | > 100 µM | 9.03 µM | > 100 µM | 5.9 µM | > 100 µM |
| CCCS(=O)(=O)Nc1ccc(F)c(C(=O)c2c[nH]c3ncc(-c4ccc(Cl)cc4)cc23)c1F | 4.13 µM and 5.43 µM | 26.2 µM and > 10 µM | 5.62 µM and 7.49 µM | 19.7 µM and > 10 µM | 4.46 µM and 5.81 µM | 16.9 µM and > 10 µM | 4.32 µM and > 8.72 µM | 19.6 µM and > 10 µM | 0.0403 µM and 0.0413 µM | 1.34 µM and 2.21 µM | 3.72 µM and > 8.33 µM | 16.1 µM and > 10 µM | 4.19 µM and 3.38 µM | 19 µM and > 10 µM | 6.56 µM and > 10 µM | 29.6 µM and > 10 µM | 2.48 µM and 2.38 µM | 16.6 µM and > 10 µM | 4.96 µM and 4.79 µM | 15.1 µM and > 10 µM |
